# Assay results taken from patent US12077503B2, “Substituted cyclic amides and their use as herbicides” (FMC CORPORATION, priority 2015, dated 2024).
# Assays:
# Format in all cases: in vivo
# [1] = tested on: barnyardgrass (Echinochloa crus-galli); test: Test C preemergence; details: for Plant response rating (scale of 0 to 100), Barnyardgrass: 0 is no effect, 100 is complete control
# Summary of the method: (§1)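 Greenhouse test: seeds in a loam and sand blend treated preemergence, or seedlings at the 1- to 4-leaf stage (2 to 18 cm) in a peat, vermiculite and limestone mix treated postemergence, with test chemicals in a surfactant-containing non-phytotoxic solvent. Scored by eye at 13 to 15 d relative to controls, 0 (no effect) to 100 (complete control).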
# [2] = tested on: morningglory (Ipomoea coccinea); test: Test C preemergence; details: for Plant response rating (scale of 0 to 100), Morningglory: 0 is no effect, 100 is complete control
# Summary of the method: as §1
# [3] = tested on: nutsedge, yellow (yellow nutsedge, Cyperus esculentus); test: Test C preemergence; details: for Plant response rating (scale of 0 to 100), Nutsedge, Yellow: 0 is no effect, 100 is complete control
# Summary of the method: as §1
# [4] = tested on: oilseed rape (Brassica napus); test: Test C preemergence; details: for Plant response rating (scale of 0 to 100), Oilseed Rape: 0 is no effect, 100 is complete control
# Summary of the method: as §1
# [5] = tested on: ryegrass, Italian (Italian ryegrass, Lolium multiflorum); test: Test C preemergence; details: for Plant response rating (scale of 0 to 100), Ryegrass, Italian: 0 is no effect, 100 is complete control
# Summary of the method: as §1
# soybean (Glycine max) = test: Test C preemergence; details: for Plant response rating (scale of 0 to 100), Soybean: 0 is no effect, 100 is complete control
# Summary of the method: as §1
# [6] = tested on: velvetleaf (Abutilon theophrasti); test: Test C preemergence; details: for Plant response rating (scale of 0 to 100), Velvetleaf: 0 is no effect, 100 is complete control
# Summary of the method: as §1
# [7] = tested on: waterhemp (common waterhemp, Amaranthus rudis); test: Test C preemergence; details: for Plant response rating (scale of 0 to 100), Waterhemp: 0 is no effect, 100 is complete control
# Summary of the method: as §1
# [8] = tested on: Panicum, fall (fall Panicum, Panicum dichotomiflorum); test: Test E preemergence; details: scale 0 to 100
# Description: (§2) Seeds of plant species selected from corn (Zea mays), soybean (Glycine max), velvetleaf (Abutilon theophrasti), lambsquarters (Chenopodium album), poinsettia, wild (wild poinsettia, Euphorbia heterophylla), pigweed, palmer (palmer pigweed, Amaranthus palmeri), waterhemp (common waterhemp, Amaranthus rudis), surinam grass (Brachiaria decumbens), crabgrass, large (large crabgrass, Digitaria sangumnalis), crabgrass, Brazil (Brazilian crabgrass, Digitaria horizontalis), Panicum, fall (fall Panicum, Panicum dichotomiflorum), foxtail, giant (giant foxtail, Setaria faberii), foxtail, green (green foxtail, Setaria viridis), goosegrass (Eleusine indica), johnsongrass (Sorghum halepense), ragweed (common ragweed, Ambrosia elatior), barnyardgrass (Echinochloa crus-galli), sandbur (southern sandbur, Cenchrus echinatus), arrowleaf Sida (Sida rhombifolia), ryegrass, Italian (Italian ryegrass, Lolium multiflorum), dayflower, VA (Virginia dayflower, Commelina virginica), field bindweed (Convolvulus arvensis), morningglory (Ipomoea coccinea), nightshade (eastern black nightshade, Solanum ptycanthum), Kochia (Kochia scoparia), nutsedge, yellow (yellow nutsedge, Cyperus esculentus), horseweed (Conyza canadensis), and beggarticks (hairy beggarticks, Bidens pilosa), were planted into a silt loam soil and treated preemergence with test chemicals formulated in a non-phytotoxic solvent mixture which included a surfactant.
# (§3) At the same time, plants selected from these crop and weed species were planted in pots containing Sunshine Redi-Earth planting medium comprising spaghnum peat moss, vermiculite, starter nutrients and dolomitic limestone and treated with postemergence applications of a test chemical formulated in the same manner. Plants ranged in height from 2 to 18 cm (1- to 4-leaf stage) for postemergence treatments. Treated plants and controls were maintained in a greenhouse for 14 to 21 d, after which time all species were compared to controls and visually evaluated. Plant response ratings, summarized in Table E, are based on a scale of 0 to 100 where 0 is no effect and 100 is complete control. A dash (-) response means no test result.
# [9] = tested on: crabgrass, Brazil (Brazilian crabgrass, Digitaria horizontalis); test: Test E preemergence; details: scale 0 to 100
# Description: as §2, §3
# [10] = tested on: crabgrass, large (large crabgrass, Digitaria sangumnalis); test: Test E preemergence; details: scale 0 to 100
# Description: as §2, §3
# [11] = tested on: dayflower, VA (Virginia dayflower, Commelina virginica); test: Test E preemergence; details: scale 0 to 100
# Description: as §2, §3
# [12] = tested on: johnsongrass (Sorghum halepense); test: Test E preemergence; details: scale 0 to 100
# Description: as §2, §3
# [13] = tested on: nutsedge, yellow (yellow nutsedge, Cyperus esculentus); test: Test E preemergence; details: scale 0 to 100
# Description: as §2, §3
# [14] = tested on: sandbur (southern sandbur, Cenchrus echinatus); test: Test E preemergence; details: scale 0 to 100
# Description: as §2, §3
# [15] = 62 g ai/ha, scale 0 to 100, 0 no effect, 100 complete control
smiles,measurement,setting,value
"CN1C[C@H](c2ccc(C(F)(F)F)cc2)[C@@H](C(=O)Nc2cccc(F)c2F)C1=O [Compound 623, (3S,4S)—N-(2,3-difluorophenyl)-1-methyl-2-oxo-4-[4-(trifluoromethyl)phenyl]-3-pyrrolidinecarboxamide]","Plant response rating (scale of 0 to 100), Barnyardgrass",[1]; 8 g ai/ha,90
same,"Plant response rating (scale of 0 to 100), Barnyardgrass",[1]; 16 g ai/ha,90
same,"Plant response rating (scale of 0 to 100), Barnyardgrass",[1]; 31 g ai/ha,90
same,"Plant response rating, Barnyardgrass",[1]; [15],95
same,"Plant response rating (scale of 0 to 100), Morningglory",[2]; 8 g ai/ha,0
same,"Plant response rating (scale of 0 to 100), Morningglory",[2]; 16 g ai/ha,0
same,"Plant response rating (scale of 0 to 100), Morningglory",[2]; 31 g ai/ha,25
same,"Plant response rating, Morningglory",[2]; [15],15
same,"Plant response rating (scale of 0 to 100), Nutsedge, Yellow",[3]; 8 g ai/ha,0
same,"Plant response rating (scale of 0 to 100), Nutsedge, Yellow",[3]; 16 g ai/ha,0
same,"Plant response rating (scale of 0 to 100), Nutsedge, Yellow",[3]; 31 g ai/ha,0
same,"Plant response rating, Nutsedge, Yellow",[3]; [15],0
same,"Plant response rating (scale of 0 to 100), Oilseed Rape",[4]; 8 g ai/ha,80
same,"Plant response rating (scale of 0 to 100), Oilseed Rape",[4]; 16 g ai/ha,0
same,"Plant response rating (scale of 0 to 100), Oilseed Rape",[4]; 31 g ai/ha,30
same,"Plant response rating, Oilseed Rape",[4]; [15],85
same,"Plant response rating (scale of 0 to 100), Ryegrass, Italian",[5]; 8 g ai/ha,0
same,"Plant response rating (scale of 0 to 100), Ryegrass, Italian",[5]; 16 g ai/ha,20
same,"Plant response rating (scale of 0 to 100), Ryegrass, Italian",[5]; 31 g ai/ha,45
same,"Plant response rating, Ryegrass, Italian",[5]; [15],55
same,"Plant response rating (scale of 0 to 100), Soybean",soybean (Glycine max); 8 g ai/ha,0
same,"Plant response rating (scale of 0 to 100), Soybean",soybean (Glycine max); 16 g ai/ha,0
same,"Plant response rating (scale of 0 to 100), Soybean",soybean (Glycine max); 31 g ai/ha,0
same,"Plant response rating, Soybean",soybean (Glycine max); [15],0
same,"Plant response rating (scale of 0 to 100), Velvetleaf",[6]; 8 g ai/ha,0
same,"Plant response rating (scale of 0 to 100), Velvetleaf",[6]; 16 g ai/ha,0
same,"Plant response rating (scale of 0 to 100), Velvetleaf",[6]; 31 g ai/ha,5
same,"Plant response rating, Velvetleaf",[6]; [15],60
same,"Plant response rating (scale of 0 to 100), Waterhemp",[7]; 8 g ai/ha,45
same,"Plant response rating (scale of 0 to 100), Waterhemp",[7]; 16 g ai/ha,75
same,"Plant response rating (scale of 0 to 100), Waterhemp",[7]; 31 g ai/ha,85
same,"Plant response rating, Waterhemp",[7]; [15],90
same,"Plant response rating: Panicum, Fall",[8]; 31 g ai/ha,90
same,"Plant response rating: Panicum, Fall",[8]; 62 g ai/ha,90
same,"Plant response rating: Panicum, Fall",[8]; 125 g ai/ha,90
same,"Plant response rating: Panicum, Fall",[8]; 250 g ai/ha,90
same,"Plant response rating: Crabgrass, Brazil",[9]; 31 g ai/ha,98
same,"Plant response rating: Crabgrass, Brazil",[9]; 62 g ai/ha,98
same,"Plant response rating: Crabgrass, Brazil",[9]; 125 g ai/ha,98
same,"Plant response rating: Crabgrass, Brazil",[9]; 250 g ai/ha,98
same,"Plant response rating: Crabgrass, Large",[10]; 31 g ai/ha,98
same,"Plant response rating: Crabgrass, Large",[10]; 62 g ai/ha,98
same,"Plant response rating: Crabgrass, Large",[10]; 125 g ai/ha,98
same,"Plant response rating: Crabgrass, Large",[10]; 250 g ai/ha,98
same,"Plant response rating: Dayflower, VA",[11]; 31 g ai/ha,0
same,"Plant response rating: Dayflower, VA",[11]; 62 g ai/ha,0
same,"Plant response rating: Dayflower, VA",[11]; 125 g ai/ha,20
same,"Plant response rating: Dayflower, VA",[11]; 250 g ai/ha,35
same,Plant response rating: Johnsongrass,[12]; 31 g ai/ha,40
same,Plant response rating: Johnsongrass,[12]; 62 g ai/ha,60
same,Plant response rating: Johnsongrass,[12]; 125 g ai/ha,85
same,Plant response rating: Johnsongrass,[12]; 250 g ai/ha,95
same,"Plant response rating: Nutsedge, Yellow",[13]; 31 g ai/ha,0
same,"Plant response rating: Nutsedge, Yellow",[13]; 62 g ai/ha,20
same,"Plant response rating: Nutsedge, Yellow",[13]; 125 g ai/ha,40
same,"Plant response rating: Nutsedge, Yellow",[13]; 250 g ai/ha,80
same,Plant response rating: Sandbur,[14]; 31 g ai/ha,90
same,Plant response rating: Sandbur,[14]; 62 g ai/ha,90
same,Plant response rating: Sandbur,[14]; 125 g ai/ha,90
same,Plant response rating: Sandbur,[14]; 250 g ai/ha,90
